System: KRAS-mutant PDC complex spheroid viability
Assay: Anticancer human tumor 186277-243-T-J2-PDC patient-derived colon adenocarcinoma cell line growth inhibition [KRAS2]
Details: for IC50: curve of first compound; for viability, T/C: stronger effect = lower value
How it was run: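 Combination screen of spheroid viability in tumor-cell co-cultures with endothelial (HUVEC) and mesenchymal stem cell stroma. Each agent was tested in half-log dilutions, topping at clinical Cmax or at 10 microM without a known Cmax.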

[1] = second compound 0.0316 µM, first compound 0.0316 µM
[2] = second compound 0.1 µM, first compound 0.0316 µM
[3] = second compound 0.316 µM, first compound 0.0316 µM
[4] = second compound 1 µM, first compound 0.0316 µM
[5] = second compound 3.16 µM, first compound 0.0316 µM
[6] = second compound 0.0316 µM, first compound 0.1 µM
[7] = second compound 0.0316 µM, first compound 0.316 µM
[8] = second compound 0.0316 µM, first compound 1 µM
[9] = second compound 0.0316 µM, first compound 3.16 µM
[10] = second compound 0.0316 µM, first compound 10 µM
[11] = second compound 0.1 µM, first compound 0.1 µM
[12] = second compound 0.1 µM, first compound 0.316 µM
[13] = second compound 0.1 µM, first compound 1 µM
[14] = second compound 0.1 µM, first compound 3.16 µM
[15] = second compound 0.1 µM, first compound 10 µM
[16] = second compound 0.316 µM, first compound 0.1 µM
[17] = second compound 0.316 µM, first compound 0.316 µM
[18] = second compound 0.316 µM, first compound 1 µM
[19] = second compound 0.316 µM, first compound 3.16 µM
[20] = second compound 0.316 µM, first compound 10 µM
[21] = second compound 1 µM, first compound 0.1 µM
[22] = second compound 1 µM, first compound 0.316 µM
[23] = second compound 1 µM, first compound 1 µM
[24] = second compound 1 µM, first compound 3.16 µM
[25] = second compound 1 µM, first compound 10 µM
[26] = second compound 3.16 µM, first compound 0.1 µM
[27] = second compound 3.16 µM, first compound 0.316 µM
[28] = second compound 3.16 µM, first compound 1 µM
[29] = second compound 3.16 µM, first compound 3.16 µM
[30] = second compound 3.16 µM, first compound 10 µM
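Wherever viability, T/C is given: viability read after seven days of compound exposure; 100% = DMSO vehicle-treated spheroids so lower means less viable.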

## CC(=O)Nc1cccc(-n2c(=O)n(C3CC3)c(=O)c3c(Nc4ccc(I)cc4F)n(C)c(=O)c(C)c32)c1 + C=CC(=O)N1CCN(c2nc(OCC3CCCN3C)nc3c2CCN(c2cccc4cccc(C)c24)C3)CC1CC#N
Second compound 0.0316 µM
  IC50: 0.749 nM
Second compound 0.1 µM
  IC50: 0.668 nM
Second compound 0.316 µM
  IC50: 0.67 nM
Second compound 1 µM
  IC50: 0.483 nM
Second compound 3.16 µM
  IC50: < 0.1 nM
Second compound 0.0316 µM, first compound 0.0001 µM
  viability, T/C: 98.2%
Second compound 0.0316 µM, first compound 0.000316 µM
  viability, T/C: 115%
Second compound 0.0316 µM, first compound 0.001 µM
  viability, T/C: 30.9%
Second compound 0.0316 µM, first compound 0.00316 µM
  viability, T/C: 7.61%
Second compound 0.0316 µM, first compound 0.01 µM
  viability, T/C: 2.46%
[1]
  viability, T/C: 1.21%
Second compound 0.1 µM, first compound 0.0001 µM
  viability, T/C: 88.8%
Second compound 0.1 µM, first compound 0.000316 µM
  viability, T/C: 103%
Second compound 0.1 µM, first compound 0.001 µM
  viability, T/C: 25.1%
Second compound 0.1 µM, first compound 0.00316 µM
  viability, T/C: 6.76%
Second compound 0.1 µM, first compound 0.01 µM
  viability, T/C: 2.36%
[2]
  viability, T/C: 1.26%
Second compound 0.316 µM, first compound 0.0001 µM
  viability, T/C: 103%
Second compound 0.316 µM, first compound 0.000316 µM
  viability, T/C: 99%
Second compound 0.316 µM, first compound 0.001 µM
  viability, T/C: 23.8%
Second compound 0.316 µM, first compound 0.00316 µM
  viability, T/C: 5.26%
Second compound 0.316 µM, first compound 0.01 µM
  viability, T/C: 2.18%
[3]
  viability, T/C: 1.26%
Second compound 1 µM, first compound 0.0001 µM
  viability, T/C: 105%
Second compound 1 µM, first compound 0.000316 µM
  viability, T/C: 74%
Second compound 1 µM, first compound 0.001 µM
  viability, T/C: 8.66%
Second compound 1 µM, first compound 0.00316 µM
  viability, T/C: 2.88%
Second compound 1 µM, first compound 0.01 µM
  viability, T/C: 1.12%
[4]
  viability, T/C: 0.75%
Second compound 3.16 µM, first compound 0.0001 µM
  viability, T/C: 0.32%
Second compound 3.16 µM, first compound 0.000316 µM
  viability, T/C: 0.18%
Second compound 3.16 µM, first compound 0.001 µM
  viability, T/C: 0.13%
Second compound 3.16 µM, first compound 0.00316 µM
  viability, T/C: 0.12%
Second compound 3.16 µM, first compound 0.01 µM
  viability, T/C: 0.11%
[5]
  viability, T/C: 0.19%

## COC(=O)c1ccc2c(C(=Nc3ccc(N(C)C(=O)CN4CCN(C)CC4)cc3)c3ccccc3)c(O)[nH]c2c1 + C=CC(=O)N1CCN(c2nc(OCC3CCCN3C)nc3c2CCN(c2cccc4cccc(C)c24)C3)CC1CC#N
Second compound 0.0316 µM
  IC50: 1890 nM
Second compound 0.1 µM
  IC50: 732 nM
Second compound 0.316 µM
  IC50: 949 nM
Second compound 1 µM
  IC50: 446 nM
Second compound 3.16 µM
  IC50: < 31.6 nM
[1]
  viability, T/C: 103%
[6]
  viability, T/C: 104%
[7]
  viability, T/C: 113%
[8]
  viability, T/C: 85.3%
[9]
  viability, T/C: 21.7%
[10]
  viability, T/C: 13.4%
[2]
  viability, T/C: 91.5%
[11]
  viability, T/C: 92.3%
[12]
  viability, T/C: 103%
[13]
  viability, T/C: 33%
[14]
  viability, T/C: 12.6%
[15]
  viability, T/C: 7.16%
[3]
  viability, T/C: 97.8%
[16]
  viability, T/C: 109%
[17]
  viability, T/C: 102%
[18]
  viability, T/C: 47.5%
[19]
  viability, T/C: 7.39%
[20]
  viability, T/C: 5.61%
[4]
  viability, T/C: 105%
[21]
  viability, T/C: 86.3%
[22]
  viability, T/C: 65.3%
[23]
  viability, T/C: 20.9%
[24]
  viability, T/C: 1.39%
[25]
  viability, T/C: 1.01%
[5]
  viability, T/C: 0.29%
[26]
  viability, T/C: 0.26%
[27]
  viability, T/C: 0.23%
[28]
  viability, T/C: 0.11%
[29]
  viability, T/C: 0.77%
[30]
  viability, T/C: 0.09%

## COc1cc(Nc2ncc3c(n2)-c2ccc(Cl)cc2C(c2c(F)cccc2OC)=NC3)ccc1C(=O)O + C=CC(=O)N1CCN(c2nc(OCC3CCCN3C)nc3c2CCN(c2cccc4cccc(C)c24)C3)CC1CC#N
Second compound 0.0316 µM
  IC50: < 31.6 nM
Second compound 0.1 µM
  IC50: < 31.6 nM
Second compound 0.316 µM
  IC50: < 31.6 nM
Second compound 1 µM
  IC50: < 31.6 nM
Second compound 3.16 µM
  IC50: < 31.6 nM
[1]
  viability, T/C: 34%
[6]
  viability, T/C: 32.2%
[7]
  viability, T/C: 30%
[8]
  viability, T/C: 34.5%
[9]
  viability, T/C: 43.3%
[10]
  viability, T/C: 48%
[2]
  viability, T/C: 34.2%
[11]
  viability, T/C: 31.7%
[12]
  viability, T/C: 30.3%
[13]
  viability, T/C: 31.2%
[14]
  viability, T/C: 42.8%
[15]
  viability, T/C: 44.2%
[3]
  viability, T/C: 34.3%
[16]
  viability, T/C: 28.6%
[17]
  viability, T/C: 27.4%
[18]
  viability, T/C: 30.2%
[19]
  viability, T/C: 40.2%
[20]
  viability, T/C: 42.5%
[4]
  viability, T/C: 28%
[21]
  viability, T/C: 26.4%
[22]
  viability, T/C: 25.9%
[23]
  viability, T/C: 25.3%
[24]
  viability, T/C: 29.5%
[25]
  viability, T/C: 21.6%
[5]
  viability, T/C: 0.25%
[26]
  viability, T/C: 0.19%
[27]
  viability, T/C: 0.19%
[28]
  viability, T/C: 0.17%
[29]
  viability, T/C: 0.69%
[30]
  viability, T/C: 0.19%

## O=C(c1cc(Cc2n[nH]c(=O)c3ccccc23)ccc1F)N1CCN(C(=O)C2CC2)CC1 + C=CC(=O)N1CCN(c2nc(OCC3CCCN3C)nc3c2CCN(c2cccc4cccc(C)c24)C3)CC1CC#N
Second compound 0.0316 µM
  IC50: 1170 nM
Second compound 0.1 µM
  IC50: 3530 nM
Second compound 0.316 µM
  IC50: 8700 nM
Second compound 1 µM
  IC50: 7630 nM
Second compound 3.16 µM
  IC50: < 31.6 nM
[1]
  viability, T/C: 105%
[6]
  viability, T/C: 107%
[7]
  viability, T/C: 96.2%
[8]
  viability, T/C: 53.1%
[9]
  viability, T/C: 30.7%
[10]
  viability, T/C: 26.6%
[2]
  viability, T/C: 104%
[11]
  viability, T/C: 119%
[12]
  viability, T/C: 121%
[13]
  viability, T/C: 114%
[14]
  viability, T/C: 51.6%
[15]
  viability, T/C: 34.3%
[3]
  viability, T/C: 113%
[16]
  viability, T/C: 111%
[17]
  viability, T/C: 116%
[18]
  viability, T/C: 118%
[19]
  viability, T/C: 72.2%
[20]
  viability, T/C: 47%
[4]
  viability, T/C: 108%
[21]
  viability, T/C: 107%
[22]
  viability, T/C: 107%
[23]
  viability, T/C: 107%
[24]
  viability, T/C: 77.3%
[25]
  viability, T/C: 41.6%
[5]
  viability, T/C: 0.23%
[26]
  viability, T/C: 0.3%
[27]
  viability, T/C: 0.47%
[28]
  viability, T/C: 0.26%
[29]
  viability, T/C: 0.28%
[30]
  viability, T/C: 0.22%
